We go through one compound from patent publication US20090062351A1, “Benzoyl amino pyridyl carboxylic acid derivatives useful as glucokinase (glk) activators” (priority 2003, published 2009).

For orientation: pEC50 means the negative decadic logarithm of the EC50, by convention in mol/L. A lower pEC50 goes with a large EC50.

pEC50: −log10 of the molar value.

Data set [1] in a line: Plasma protein binding by equilibrium dialysis. The settings on record: rat, 37° C., pH 7.4, read-out: % free in plasma. Format: in vitro ADME. The procedure: The plasma protein binding of compounds was measured using the equilibrium dialysis technique (W. Lindner et al, J. Chromatography, 1996, 677, 1-28). Compound was dialysed at a concentration of 20 μM for 18 hours at 37° C. with plasma and isotonic phosphate buffer pH 7.4 (1 ml of each in the dialysis cell). A Spectrum® 20-cell equilibrium dialyser was used together with Teflon, semi-micro dialysis cells and Spectra/Por®2 membrane discs with a molecular weight cut off 12-14000 Dalton, 47 mm (supplied by PerBio Science UK Ltd, Tattenhall, Cheshire). Plasma and buffer samples are removed following dialysis and analysed using HPLCUV/MS (high performance liquid chromatography with UV and mass spec detection) to give the % free level in plasma.
For orientation: In equilibrium dialysis free small molecules cross a membrane that holds back macromolecules.

The target in a further data set is T1, glucokinase (GLK) (Homo sapiens, UniProt P35557).
T1 sequence (P35557 1-466 isoform P35557-2): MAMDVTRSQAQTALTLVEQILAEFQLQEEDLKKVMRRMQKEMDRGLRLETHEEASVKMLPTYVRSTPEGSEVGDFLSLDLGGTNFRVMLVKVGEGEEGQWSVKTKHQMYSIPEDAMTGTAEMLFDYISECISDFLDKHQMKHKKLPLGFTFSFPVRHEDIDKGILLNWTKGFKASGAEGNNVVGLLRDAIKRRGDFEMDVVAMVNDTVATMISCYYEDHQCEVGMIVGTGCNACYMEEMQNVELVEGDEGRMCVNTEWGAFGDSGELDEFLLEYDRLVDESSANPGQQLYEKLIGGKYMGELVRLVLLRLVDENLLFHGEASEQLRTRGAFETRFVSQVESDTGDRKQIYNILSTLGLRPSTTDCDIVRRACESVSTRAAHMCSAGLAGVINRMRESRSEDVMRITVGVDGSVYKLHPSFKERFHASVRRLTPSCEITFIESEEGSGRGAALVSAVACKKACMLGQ
The data set can be described thus: biochemical.

Data set [2] is described as follows: Plasma levels following oral administration to rats. It is filed as in vivo. The settings on record: rat, including both bound and free, normalised dose of 1 mg compound per kilogram body weight. As for the experimental part: Planetary Milled compounds [15 mins, 500 rpm, 5 Zirconium Balls, in a Puluerisette 7 Mill (Glen Creston Ltd, Stanmore, Middlesex, UK)] were suspended in 0.5% HPMC Tween and dosed to High Fat Fed (Research Diets, D12451, ad lib feeding 14 days) Female Alderley Park Zucker or Alderley Park Wistar rats at rate of 5 mls/kg, at doses between 0.3 and 10 mg/kg by oral gavage.
Samples of plasma were obtained either by conscious blood sampling or terminal blood sampling as follows:
Conscious blood sampling (for compound level or blood chemistry)—Intravenous blood samples were taken from tail vein using 600 μl Starstedt Multivette (EDTA) and 22 G needle at the required time point. […]
The reconstituted samples were then analysed using high performance liquid chromatography with tandem mass spectrometry detection (HPLC-MS-MS)”. […]
The concentration of test samples was determined from the ratio of the peak height of the test sample to the peak height of the internal standard. The concentration of the test sample was calculated with reference to a standard curve relating the ratio to the concentration prepared by using known concentrations of test sample added to samples of rat plasma using (3-isopropoxy-5-benzyoxy-benzoyl)amino pyridine 3-carboxylic acid as an internal standard, treated as described above.

As to `COC[C@H](C)Oc1cc(OCC=C2CCCC2)cc(C(=O)Nc2ccc(C(=O)O)cn2)c1` [Example 2, 6-{[(3-[(2-cyclopentylideneethyl)oxy]-5-{[(1S)-1-methyl-2-(methyloxy)ethyl]oxy}phenyl)carbonyl]amino}pyridine-3-carboxylic acid], the fraction unbound at 18 h, 20 μM in data set [1] worked out at 0.0042. At glucokinase (GLK), this compound gave a pEC50 of 7.11. Also, the “Peak Blood levels” value in data set [2] worked out at 2.2 µM.
